Data as given in publication PMC6994307 (Current Therapeutic Research, Clinical and Experimental, 2019).
Entries after “also recorded” stand apart in the source; their conditions may differ. Read-outs that look alike come from different tables or passages of the source.

Experiments:
CB1 [1] = details: CP55,940 as the tracer; cited from earlier work
human CB1 receptor [2] = biological target: T1, human CB1 receptor (Homo sapiens, UniProt P21554); type: binding; details: for Effect on binding of agonist CP55,940 (in words): [3H]CP55,940 tracer, modulator 1 nM–10 µM
[3] = Computational prediction of physicochemical properties and solubility
human CB1 receptor [4] = biological target: T1, human CB1 receptor; type: binding; details: for cooperativity factor: [3H]SR141716A (1 nM) as orthosteric inverse agonist; for Effect on SR141716A binding (in words): [3H]SR141716A tracer, modulator 1 nM–10 µM
rats = details: cited from earlier work
CB1 [5] = details: cited from earlier work
CB1 [6] = details: cited from earlier work; remark: listed apart in the source
CB1 [7] = details: cited from earlier work; remark: listed apart in the source
[8] = read-out: KB (equilibrium dissociation), [3H]CP55,940 (0.5 nM) as orthosteric ligand, 95% CI in parentheses, NB = no detectable binding with test compound up to 10 µM
[9] = on introducing ethanolamine into LDK1321 (6a) and LDK1324 (6b)

T1 sequence (P21554 whole entry): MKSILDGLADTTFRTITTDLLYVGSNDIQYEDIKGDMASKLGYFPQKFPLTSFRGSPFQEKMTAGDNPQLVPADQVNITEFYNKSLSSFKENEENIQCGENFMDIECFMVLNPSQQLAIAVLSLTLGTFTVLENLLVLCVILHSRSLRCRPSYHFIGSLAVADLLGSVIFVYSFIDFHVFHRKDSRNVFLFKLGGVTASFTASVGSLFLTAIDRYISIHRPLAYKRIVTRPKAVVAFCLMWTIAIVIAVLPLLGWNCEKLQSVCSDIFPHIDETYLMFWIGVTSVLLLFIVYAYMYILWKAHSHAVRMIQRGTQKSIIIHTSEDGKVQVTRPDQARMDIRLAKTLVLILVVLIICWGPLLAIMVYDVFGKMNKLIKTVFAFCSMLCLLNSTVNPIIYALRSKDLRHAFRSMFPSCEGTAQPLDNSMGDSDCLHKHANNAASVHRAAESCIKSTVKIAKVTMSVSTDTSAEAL

Row | Compound | Kb (human CB1 receptor [2]) [nM] | Effect on binding of agonist CP55,940 (in words) (human CB1 receptor [2]) | Kb (human CB1 receptor [2]; [8]) [nM] | cooperativity factor (human CB1 receptor [4]) | Effect on SR141716A binding (in words) (human CB1 receptor [4]) | also measured
1 | N#Cc1ccc(NC(=O)Nc2cccc(-c3cccc(N4CCCC4)n3)c2)cc1 | – | – | – | – | – | EC50 (CB1 [1]): 55 nM
2 | CC(=O)Nc1cccc(NC(=O)Nc2ccc(C#N)cc2)c1 [LDK1317, N-(3-(3-(4-Cyanophenyl)ureido)phenyl)acetamide] | 110 | enhanced the binding of agonist CP55,940 to some degree | – | – | – | –
3 | N#Cc1ccc(NC(=O)Nc2ccc3[nH]ccc3c2)cc1 [LDK1318, 1-(4-Cyanophenyl)-3-(1H-indol-5-yl)urea] | – | no binding | > 10000 | – | – | –
4 | N#Cc1ccc(NC(=O)Nc2ccc3cc[nH]c3c2)cc1 [LDK1319, 1-(4-Cyanophenyl)-3-(1H-indol-6-yl)urea] | – | no binding | > 10000 | – | – | –
5 | CN(C)c1ccc(NC(=O)Nc2ccc(C#N)cc2)cc1 [LDK1320, 1-(4-Cyanophenyl)-3-(4-(dimethylamino)phenyl)urea] | 830 | – | – | – | – | Enhancement of calculated intrinsic solubility ([3]; vs PSNCBAM-1, on reducing the number of rings to 2): about 400 fold; Effect on binding of agonist CP55,940 (in words) (human CB1 receptor [2]; listed as LDK1320 (12b)): enhanced the binding of agonist CP55,940 to some degree
6 | N#Cc1ccc(NC(=O)Nc2cccc(-c3ccnc(Cl)n3)c2)cc1 [LDK1321, 1-(3-(2-Chloropyrimidin-4-yl)phenyl)-3-(4-cyanophenyl)urea] | 85 | – | – | < 1 | robust, dose-dependent decrease | Effect on binding of agonist CP55,940 (in words) (human CB1 receptor [2]; listed as LDK1321 (6a)): enhanced the binding of agonist CP55,940 to some degree; also recorded: successful in enhancing the binding of agonist CP55,940
7 | N#Cc1ccc(NC(=O)Nc2cccc(-c3ccnc(NCCO)n3)c2)cc1 [LDK1323, 1-(4-Cyanophenyl)-3-(3-(2-((2-hydroxyethyl)amino)pyrimidin-4-yl)phenyl)urea] | 200 | – | – | < 1 | modest decrease | Enhancement of calculated intrinsic solubility [3, 9]: approximately 20 fold; Effect on binding of agonist CP55,940 (in words) (human CB1 receptor [2]; listed as LDK1323 (8a)): enhanced the binding of agonist CP55,940 to some degree; also recorded: modest, but positive influence
8 | N#Cc1ccc(NC(=O)Nc2cccc(-c3cccc(Cl)n3)c2)cc1 [LDK1324, 1-(3-(6-Chloropyridin-2-yl)phenyl)-3-(4-cyanophenyl)urea] | 300 | – | – | < 1 | robust, dose-dependent decrease | Effect on binding of agonist CP55,940 (in words) (human CB1 receptor [2]; listed as LDK1324 (6b)): enhanced the binding of agonist CP55,940 to some degree
9 | N#Cc1ccc(NC(=O)Nc2cccc(-c3cccc(NCCO)n3)c2)cc1 [LDK1325, 1-(4-Cyanophenyl)-3-(3-(6-((2-hydroxyethyl)amino)pyridin-2-yl)phenyl)urea] | – | – | > 10000 | – | – | Enhancement of calculated intrinsic solubility [3, 9]: approximately 20 fold; Effect on binding of agonist CP55,940 (in words) (human CB1 receptor [2]; listed as LDK1325 (8b)): no binding; also recorded: lost its binding affinity
10 | O=C(Nc1ccc(Cl)cc1)Nc1cccc(-c2cccc(N3CCCC3)n2)c1 [PSNCBAM-1, 1-(4-Chlorophenyl)-3-{3-[6-(pyrrolidin-1-yl)pyridin-2-yl]phenyl} urea] | – | – | – | – | – | Food intake and body weight (rats): reduced food intake and body weight; Effect in GTPγS assay (CB1 [5]): noncompetitive, inhibitory effects; Effect in cAMP assay (CB1 [6]): noncompetitive, inhibitory effects; Effect on binding of the CB1 agonist CP55,940 (CB1 [7]): enhanced binding; Effect on binding of the inverse agonist SR141716A (CB1 [7]): reducing the binding
